For test [1] the following is noted: cited from earlier work.
The target of test [2] is T1, human MetAP2 enzyme (Homo sapiens, UniProt P50579). The experiment in a line: MetAP2 enzyme assay, enzyme complexed with manganese ions. The conditions noted are these: MetAP2 Mn pIC50, MetAP2 enzyme complexed with manganese ions; Met-AMC substrate at Km.
Experimental: DNA encoding the full-length sequence of human MetAP2 enzyme is amplified by PCR and cloned into a pFastBac expression vector (Invitrogen). Recombinant baculovirus incorporating the MetAP2 construct is generated by transposition using the Bac-to-Bac system (Invitrogen). The expression of recombinant protein is carried out by infection of Spodoptera frugiperda Sf9 cells (Invitrogen) in 5 L Wave Bioreactors (Wave Biotech). Recombinant protein is isolated from cellular extracts by binding to an SP Hitrap Fast Flow or SP Sepharose (Sigma) column, and the protein is eluted using a NaCl gradient. Partially purified extracts of MetAP2 are further purified by an AKTA FPLC over a Superdex-200 column (GE). The purity of MetAP2 protein is determined on denaturing SDS-PAGE gel.
The results for each well are expressed as percent inhibition and calculated using the equation:
The target of test [3] is T1, human MetAP2 enzyme. The experiment in a line: MetAP2 enzyme assay, enzyme complexed with cobalt ions. The conditions noted are these: MetAP2 Co pIC50, MetAP2 enzyme complexed with cobalt ions; Met-AMC substrate at Km.
In another test the test system is angiogenesis. The conditions noted are these: cited from earlier work.

Consider 33 molecules from patent US9434743B2, “Indazole derivatives” (TAKEDA PHARMACEUTICAL COMPANY LIMITED, priority 2012, dated 2016).

T1 sequence (P50579 whole entry): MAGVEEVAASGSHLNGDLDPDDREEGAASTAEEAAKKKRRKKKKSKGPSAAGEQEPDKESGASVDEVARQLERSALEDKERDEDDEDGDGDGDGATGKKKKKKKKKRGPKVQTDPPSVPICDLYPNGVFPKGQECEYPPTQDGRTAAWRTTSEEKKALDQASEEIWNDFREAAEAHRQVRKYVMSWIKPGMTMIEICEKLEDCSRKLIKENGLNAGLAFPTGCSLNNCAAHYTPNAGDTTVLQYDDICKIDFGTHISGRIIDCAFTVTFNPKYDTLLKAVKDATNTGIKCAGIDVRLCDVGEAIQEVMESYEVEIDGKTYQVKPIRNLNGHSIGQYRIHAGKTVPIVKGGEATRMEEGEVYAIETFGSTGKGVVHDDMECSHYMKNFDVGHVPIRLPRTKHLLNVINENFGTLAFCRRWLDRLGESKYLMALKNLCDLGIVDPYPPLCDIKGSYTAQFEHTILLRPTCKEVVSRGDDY

Take `CO[C@@H]1[C@H](OC(=O)/C=C/c2ccc(OCCN(C)C)cc2)CC[C@]2(CO2)[C@H]1[C@@]1(C)O[C@@H]1CC=C(C)C` [CKD-732]: the “food intake, body weight, fat mass, size of adipocytes” value in test [1] (genetically and diet-induced obese mice) was “decrease food intake, body weight, fat mass, and the size of adipocytes”.

On to `CN(C)C(=O)c1c[nH]c(=O)c(-c2cc(C(F)(F)F)cc3[nH]ncc23)c1` [Example 334, N,N-dimethyl-6-oxo-5-(6-(trifluoromethyl)-1H-indazol-4-yl)-1,6-dihydropyridine-3-carboxamide], for which the IC50 (commonly the concentration that gives 50% inhibition) was 20 nM at human MetAP2 enzyme [2] and 794 nM at human MetAP2 enzyme [3].

On to `CO[C@@H]1[C@H](OC(=O)/C=C/C=C/C=C/C=C/C(=O)O)CC[C@]2(CO2)[C@H]1[C@@]1(C)O[C@@H]1CC=C(C)C` [fumagillin], for which the “effect on diet-induced obesity” value in test [1] (diet-induced obesity in mice) was “impair diet-induced obesity”. Also, the inhibition of angiogenesis entry in the test on angiogenesis was “inhibit angiogenesis”.

Consider `Cc1cc(S(=O)(=O)N(C)C)ccc1-c1cc(C(F)(F)F)cc2[nH]ncc12` [Example 125, N,N,3-trimethyl-4-(6-(trifluoromethyl)-1H-indazol-4-yl)benzenesulfonamide], for which the IC50 against human MetAP2 enzyme [2] was 31.6 nM; on human MetAP2 enzyme [3], 158 nM.

With `FC(F)(F)c1cc(-c2cccnc2OC2CCCC2)c2cn[nH]c2c1` [Example 98, 4-(2-(cyclopentyloxy)pyridin-3-yl)-6-(trifluoromethyl)-1H-indazole], the IC50 is 15.8 nM against human MetAP2 enzyme [2] and 39.8 nM at human MetAP2 enzyme [3].

With `Cc1nc(N2CCN(C)CC2)ccc1-c1cc(C(F)(F)F)cc2[nH]ncc12` [Example 400, 4-(2-methyl-6-(4-methylpiperazin-1-yl)pyridin-3-yl)-6-(trifluoromethyl)-1H-indazole], the IC50 was 7.94 nM on human MetAP2 enzyme [2] and 12.6 nM against human MetAP2 enzyme [3].

`Cc1nc(CCS(C)(=O)=O)ccc1-c1cc(C(F)(F)F)cc2[nH]ncc12` [Example 409, 4-(2-methyl-6-(2-(methylsulfonyl)ethyl)pyridin-3-yl)-6-(trifluoromethyl)-1H-indazole]: the IC50 was 3.98 nM against human MetAP2 enzyme [2] and 15.8 nM against human MetAP2 enzyme [3].

Turning to `C[C@H](O)CNc1ncc(-c2cc(C(F)(F)F)cc3[nH]ncc23)cn1` [Example 208, (S)-1-(5-(6-(trifluoromethyl)-1H-indazol-4-yl)pyrimidin-2-ylamino)propan-2-ol], the IC50 against human MetAP2 enzyme [2] was 6.31 nM; at human MetAP2 enzyme [3], 79.4 nM.

For `NC(=O)c1cc(-c2cc(C(F)(F)F)cc3[nH]ncc23)c[nH]c1=O` [Example 231, 2-oxo-5-(6-(trifluoromethyl)-1H-indazol-4-yl)-1,2-dihydropyridine-3-carboxamide], the values for the IC50 against human MetAP2 enzyme [2] and against human MetAP2 enzyme [3] were 6.31 nM and 158 nM, respectively.

For `COc1cccnc1-c1cc(C(F)(F)F)cc2[nH]ncc12` [Example 213, 4-(3-methoxypyridin-2-yl)-6-(trifluoromethyl)-1H-indazole], the IC50 was 79.4 nM at human MetAP2 enzyme [2] and 631 nM against human MetAP2 enzyme [3].

Regarding `Cc1n[nH]c(C)c1-c1cc(C(F)(F)F)cc2[nH]ncc12` [Example 83, 4-(3,5-dimethyl-1H-pyrazol-4-yl)-6-(trifluoromethyl)-1H-indazole], the IC50 at human MetAP2 enzyme [2] was 20 nM; at human MetAP2 enzyme [3], 39.8 nM.

`NS(=O)(=O)c1ccc(-c2cc(C(F)(F)F)cc3[nH]ncc23)cc1` [Example 25, 4-(6-(trifluoromethyl)-1H-indazol-4-yl)benzenesulfonamide]: the values for the 50% inhibitory concentration (IC50) against human MetAP2 enzyme [2] and on human MetAP2 enzyme [3] were 7.94 nM and 50.1 nM, respectively.

For `FC(F)(F)c1cc(-c2cc[nH]n2)c2cn[nH]c2c1` [Example 13, 4-(1H-pyrazol-3-yl)-6-(trifluoromethyl)-1H-indazole], the 50% inhibitory concentration (IC50) against human MetAP2 enzyme [2] was 10 nM; on human MetAP2 enzyme [3] it was 398 nM.

Turning to `COc1nc(C(N)=O)ccc1-c1cc(C(F)(F)F)cc2[nH]ncc12` [Example 391, 6-methoxy-5-(6-(trifluoromethyl)-1H-indazol-4-yl)picolinamide], the IC50 on human MetAP2 enzyme [2] is 5.01 nM; at human MetAP2 enzyme [3], 39.8 nM.

In the case of `Cc1nc(C(=O)NCCO)ccc1-c1cc(C(F)(F)F)cc2[nH]ncc12` [Example 387, N-(2-hydroxyethyl)-6-methyl-5-(6-(trifluoromethyl)-1H-indazol-4-yl)picolinamide], the IC50 was 6.31 nM against human MetAP2 enzyme [2] and 25.1 nM against human MetAP2 enzyme [3].

As to `O=C1NCc2c1cccc2-c1cc(C(F)(F)F)cc2[nH]ncc12` [Example 141, 4-(6-(trifluoromethyl)-1H-indazol-4-yl)isoindolin-1-one], the IC50 is 5.01 nM at human MetAP2 enzyme [2] and 12.6 nM at human MetAP2 enzyme [3].

As for `Cc1[nH]cnc1-c1cc(C(F)(F)F)cc2[nH]ncc12` [Example 161, 4-(5-methyl-1H-imidazol-4-yl)-6-(trifluoromethyl)-1H-indazole], the IC50 was 12.6 nM against human MetAP2 enzyme [2] and 251 nM against human MetAP2 enzyme [3].

Take `COc1ccncc1-c1cc(C(F)(F)F)cc2[nH]ncc12` [Example 30, 4-(4-methoxypyridin-3-yl)-6-(trifluoromethyl)-1H-indazole]: the IC50 at human MetAP2 enzyme [2] was 25.1 nM; against human MetAP2 enzyme [3], 79.4 nM.

Take `Cc1nc2[nH]c(O)nc2cc1-c1cc(C(F)(F)F)cc2[nH]ncc12` [Example 382, 5-methyl-6-(6-(trifluoromethyl)-1H-indazol-4-yl)-3H-imidazo[4,5-b]pyridin-2-ol]: the values for the IC50 on human MetAP2 enzyme [2] and on human MetAP2 enzyme [3] were 6.31 nM and 12.6 nM, respectively.

In the case of `Cc1nc(N2CCOCC2)ccc1-c1cc(C(F)(F)F)cc2[nH]ncc12` [Example 399, 4-(6-methyl-5-(6-(trifluoromethyl)-1H-indazol-4-yl)pyridin-2-yl)morpholine], the IC50 on human MetAP2 enzyme [2] is 7.94 nM; against human MetAP2 enzyme [3], 25.1 nM.

`Cc1nn(CC(=O)N2CC(O)C2)c(C)c1-c1cc(C(F)(F)F)cc2[nH]ncc12` [Example 366, 2-(3,5-dimethyl-4-(6-(trifluoromethyl)-1H-indazol-4-yl)-1H-pyrazol-1-yl)-1-(3-hydroxyazetidin-1-yl)ethanone]: the results for the IC50 against human MetAP2 enzyme [2] and against human MetAP2 enzyme [3] were 15.8 nM and 50.1 nM, respectively.

Regarding `COc1ccc(-c2cc(C(F)(F)F)cc3[nH]ncc23)c(C(N)=O)n1` [Example 201, 6-methoxy-3-(6-(trifluoromethyl)-1H-indazol-4-yl)picolinamide], the figures for the IC50 at human MetAP2 enzyme [2] and at human MetAP2 enzyme [3] were 20 nM and 794 nM, respectively.

As to `FC(F)(F)c1cc(-c2cnc3[nH]c(C(F)(F)F)nc3c2)c2cn[nH]c2c1` [Example 242, 2-(trifluoromethyl)-6-(6-(trifluoromethyl)-1H-indazol-4-yl)-3H-imidazo[4,5-b]pyridine], the IC50 against human MetAP2 enzyme [2] was 6.31 nM; against human MetAP2 enzyme [3] it was 50.1 nM.

With `Cn1cnc2ccc(-c3cc(C(F)(F)F)cc4[nH]ncc34)cc21` [Example 64, 4-(1-methyl-1H-benzo[d]imidazol-6-yl)-6-(trifluoromethyl)-1H-indazole], the results for the IC50 against human MetAP2 enzyme [2] and against human MetAP2 enzyme [3] were 10 nM and 31.6 nM, respectively.

As to `FC(F)(F)c1cc(-c2cnc3c(c2)OCCN3)c2cn[nH]c2c1` [Example 4, 7-(6-(trifluoromethyl)-1H-indazol-4-yl)-3,4-dihydro-2H-pyrido[3,2-b][1,4]oxazine], the IC50 against human MetAP2 enzyme [2] was 6.31 nM; on human MetAP2 enzyme [3] it was 25.1 nM.

As for `CCOCn1ccnc1-c1cc(C(F)(F)F)cc2[nH]ncc12` [Example 145, 4-(1-(ethoxymethyl)-1H-imidazol-2-yl)-6-(trifluoromethyl)-1H-indazole], the IC50 is 631 nM on human MetAP2 enzyme [2] and 3980 nM at human MetAP2 enzyme [3].

For the molecule `FC(F)(F)c1cc(-c2ccc(OCCN3CCOCC3)cc2)c2cn[nH]c2c1` [Example 281, 4-(2-(4-(6-(trifluoromethyl)-1H-indazol-4-yl)phenoxy)ethyl)morpholine], the IC50 on human MetAP2 enzyme [2] is 7.94 nM; at human MetAP2 enzyme [3] it was 63.1 nM.

On to `CN1CCN(C(=O)c2c[nH]c(=O)c(-c3cc(C(F)(F)F)cc4[nH]ncc34)c2)CC1` [Example 297, 5-(4-methylpiperazine-1-carbonyl)-3-(6-(trifluoromethyl)-1H-indazol-4-yl)pyridin-2(1H)-one], for which the IC50 was 6.31 nM against human MetAP2 enzyme [2] and 158 nM against human MetAP2 enzyme [3].

In the case of `Cn1cnc(N)c(-c2cc(C(F)(F)F)cc3[nH]ncc23)c1=O` [Example 245, 6-amino-3-methyl-5-(6-(trifluoromethyl)-1H-indazol-4-yl)pyrimidin-4(3H)-one], the figures for the IC50 against human MetAP2 enzyme [2] and against human MetAP2 enzyme [3] were 31.6 nM and 1580 nM, respectively.

Turning to `COc1ncc(-c2cc(C(F)(F)F)cc3[nH]ncc23)c(N)n1` [Example 256, 2-methoxy-5-(6-(trifluoromethyl)-1H-indazol-4-yl)pyrimidin-4-amine], the concentration for half-maximal inhibition (IC50) was 10 nM against human MetAP2 enzyme [2] and 126 nM at human MetAP2 enzyme [3].

`Cc1c(-c2cc(C(F)(F)F)cc3[nH]ncc23)cnn1C` [Example 79, 4-(1,5-dimethyl-1H-pyrazol-4-yl)-6-(trifluoromethyl)-1H-indazole]: the IC50 on human MetAP2 enzyme [2] was 10 nM; at human MetAP2 enzyme [3], 25.1 nM.

Turning to `COc1ccc(C)nc1-c1cc(C(F)(F)F)cc2[nH]ncc12` [Example 200, 4-(3-methoxy-6-methylpyridin-2-yl)-6-(trifluoromethyl)-1H-indazole], the IC50 was 50.1 nM against human MetAP2 enzyme [2] and 316 nM against human MetAP2 enzyme [3].

For the molecule `COc1ccn2c(-c3cc(C(F)(F)F)cc4[nH]ncc34)cnc2c1C#N` [Example 160, 7-methoxy-3-(6-(trifluoromethyl)-1H-indazol-4-yl)imidazo[1,2-a]pyridine-8-carbonitrile], the IC50 was 39.8 nM at human MetAP2 enzyme [2] and 79.4 nM at human MetAP2 enzyme [3].
